In ChEMBL document CHEMBL4507276 (2021):

Assays:
[1] = target: MAP kinase-activated protein kinase 2 (Homo sapiens) (UniProt P49137); conditions: Compound concentration 1000.0 nM
[2] = target: Phosphatidylinositol 4-kinase beta (Homo sapiens) (UniProt Q9UBF8); conditions: Compound concentration 1000.0 nM
[3] = target: 5-hydroxytryptamine receptor 1E (Homo sapiens) (UniProt P28566); conditions: Compound concentration 10.0 uM
[4] = target: 5-hydroxytryptamine receptor 1B (Rattus norvegicus) (UniProt P28564); assay: 5HT1B/R Cerep selectivity data (BI); conditions: Compound concentration 20.0 uM
[5] = target: Type-2 angiotensin II receptor (Homo sapiens) (UniProt P50052); assay: AT2/H Cerep selectivity data (BI); conditions: Compound concentration 20.0 uM
[6] = target: Mitogen-activated protein kinase 1 (Homo sapiens) (UniProt P28482); assay: ERK2(P42MAPK)_CE Cerep selectivity data (BI); conditions: Compound concentration 20.0 uM
[7] = target: Histamine H3 receptor (Homo sapiens) (UniProt Q9Y5N1); assay: H3/NAMEH_H Cerep selectivity data (BI); conditions: filed as antagonist, Compound concentration 20.0 uM
[8] = target: Substance-P receptor (Homo sapiens) (UniProt P25103); assay: NK1/HUM Cerep selectivity data (BI); conditions: Compound concentration 20.0 uM
[9] = target: RAC-beta serine/threonine-protein kinase (Homo sapiens) (UniProt P31751); assay: AKT2 Invitrogen selectivity data (BI); conditions: Compound concentration 3.0 uM
[10] = target: T1, Aurora kinase C (Homo sapiens) (UniProt Q9UQB9); assay: AURKC Invitrogen selectivity data (BI); conditions: Compound concentration 3.0 uM
T1 sequence (whole entry): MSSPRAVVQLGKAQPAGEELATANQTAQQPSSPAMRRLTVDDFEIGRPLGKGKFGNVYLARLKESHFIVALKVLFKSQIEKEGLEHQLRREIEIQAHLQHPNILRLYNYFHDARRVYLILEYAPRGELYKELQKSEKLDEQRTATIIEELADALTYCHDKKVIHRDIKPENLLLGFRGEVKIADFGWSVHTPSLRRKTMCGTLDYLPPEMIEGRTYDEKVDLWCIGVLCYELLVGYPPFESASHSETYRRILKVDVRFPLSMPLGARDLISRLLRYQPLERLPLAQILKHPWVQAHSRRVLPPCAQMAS

[11] = target: Calcium/calmodulin-dependent protein kinase kinase 2 (Homo sapiens) (UniProt Q96RR4); assay: CAMKK2 Invitrogen selectivity data (BI); conditions: Compound concentration 3.0 uM
[12] = target: Casein kinase I isoform gamma-3 (Homo sapiens) (UniProt Q9Y6M4); assay: CSNK1G3 Invitrogen selectivity data (BI); conditions: Compound concentration 3.0 uM
[13] = target: Dual specificity tyrosine-phosphorylation-regulated kinase 4 (Homo sapiens) (UniProt Q9NR20); assay: DYRK4 Invitrogen selectivity data (BI); conditions: Compound concentration 3.0 uM
[14] = target: Eukaryotic elongation factor 2 kinase (Homo sapiens) (UniProt O00418); assay: EEF2K Invitrogen selectivity data (BI); conditions: Compound concentration 3.0 uM
[15] = target: Tyrosine-protein kinase HCK (Homo sapiens) (UniProt P08631); assay: HCK Invitrogen selectivity data (BI); conditions: Compound concentration 3.0 uM
[16] = target: T2, Inhibitor of nuclear factor kappa-B kinase subunit beta (Homo sapiens) (UniProt O14920); assay: IKBKB Invitrogen selectivity data (BI); conditions: Compound concentration 3.0 uM
T2 sequence (whole entry): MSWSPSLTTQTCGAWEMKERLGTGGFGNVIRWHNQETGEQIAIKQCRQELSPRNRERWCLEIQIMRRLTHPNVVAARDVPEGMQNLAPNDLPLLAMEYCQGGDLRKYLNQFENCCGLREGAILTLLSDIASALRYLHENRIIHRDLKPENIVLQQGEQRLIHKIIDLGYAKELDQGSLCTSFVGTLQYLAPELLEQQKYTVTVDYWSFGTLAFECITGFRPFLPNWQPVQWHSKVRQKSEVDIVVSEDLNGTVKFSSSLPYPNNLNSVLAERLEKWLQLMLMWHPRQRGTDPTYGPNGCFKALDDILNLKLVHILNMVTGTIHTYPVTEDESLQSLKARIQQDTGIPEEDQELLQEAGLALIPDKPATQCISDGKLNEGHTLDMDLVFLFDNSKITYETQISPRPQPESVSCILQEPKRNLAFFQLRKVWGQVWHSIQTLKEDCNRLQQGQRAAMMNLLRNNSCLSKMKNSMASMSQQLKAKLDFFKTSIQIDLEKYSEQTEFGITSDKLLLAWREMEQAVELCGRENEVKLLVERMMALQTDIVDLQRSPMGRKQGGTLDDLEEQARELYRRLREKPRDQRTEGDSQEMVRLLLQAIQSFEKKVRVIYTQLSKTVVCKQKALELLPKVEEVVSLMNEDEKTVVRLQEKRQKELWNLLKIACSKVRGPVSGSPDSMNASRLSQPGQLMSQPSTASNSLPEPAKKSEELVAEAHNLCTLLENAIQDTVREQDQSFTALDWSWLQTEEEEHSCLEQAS

[17] = target: Mitogen-activated protein kinase kinase kinase 10 (Homo sapiens) (UniProt Q02779); assay: MAP3K10 Invitrogen selectivity data (BI); conditions: Compound concentration 3.0 uM
[18] = target: Platelet-derived growth factor receptor beta (Homo sapiens) (UniProt P09619); assay: PDGFRB Invitrogen selectivity data (BI); conditions: Compound concentration 3.0 uM
[19] = target: Phosphorylase b kinase gamma catalytic chain, skeletal muscle/heart isoform (Homo sapiens) (UniProt Q16816); assay: PHKG1 Invitrogen selectivity data (BI); conditions: Compound concentration 3.0 uM
[20] = target: Phosphatidylinositol 4-phosphate 3-kinase C2 domain-containing subunit alpha (Homo sapiens) (UniProt O00443); assay: PIK3C2A Invitrogen selectivity data (BI); conditions: Compound concentration 3.0 uM
[21] = target: Phosphatidylinositol 4-phosphate 3-kinase C2 domain-containing subunit beta (Homo sapiens) (UniProt O00750); assay: PIK3C2B Invitrogen selectivity data (BI); conditions: Compound concentration 3.0 uM
[22] = target: Serine/threonine-protein kinase PLK1 (Homo sapiens) (UniProt P53350); assay: PLK1 Invitrogen selectivity data (BI); conditions: Compound concentration 3.0 uM
[23] = target: Serine/threonine-protein kinase PLK3 (Homo sapiens) (UniProt Q9H4B4); assay: PLK3 Invitrogen selectivity data (BI); conditions: Compound concentration 3.0 uM
[24] = target: Protein-tyrosine kinase 2-beta (Homo sapiens) (UniProt Q14289); assay: PTK2B Invitrogen selectivity data (BI); conditions: Compound concentration 3.0 uM
[25] = target: Ribosomal protein S6 kinase alpha-3 (Homo sapiens) (UniProt P51812); assay: RPS6KA3 Invitrogen selectivity data (BI); conditions: Compound concentration 3.0 uM
[26] = target: T3, Serine/threonine-protein kinase 17A (Homo sapiens) (UniProt Q9UEE5); assay: STK17A Invitrogen selectivity data (BI); conditions: Compound concentration 3.0 uM
T3 sequence (whole entry): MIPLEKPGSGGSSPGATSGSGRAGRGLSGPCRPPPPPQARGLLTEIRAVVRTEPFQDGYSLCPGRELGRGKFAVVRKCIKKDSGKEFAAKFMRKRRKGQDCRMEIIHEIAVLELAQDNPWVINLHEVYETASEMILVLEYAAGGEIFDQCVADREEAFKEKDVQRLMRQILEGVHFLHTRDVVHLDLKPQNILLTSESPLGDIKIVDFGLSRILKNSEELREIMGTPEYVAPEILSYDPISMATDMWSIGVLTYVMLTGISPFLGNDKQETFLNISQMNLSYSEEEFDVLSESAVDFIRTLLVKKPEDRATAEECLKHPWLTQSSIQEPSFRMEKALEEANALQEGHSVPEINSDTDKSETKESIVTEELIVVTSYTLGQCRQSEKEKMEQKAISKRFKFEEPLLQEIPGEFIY

Chain of Mitogen-activated protein kinase 1 (Homo sapiens) (P28482 whole entry): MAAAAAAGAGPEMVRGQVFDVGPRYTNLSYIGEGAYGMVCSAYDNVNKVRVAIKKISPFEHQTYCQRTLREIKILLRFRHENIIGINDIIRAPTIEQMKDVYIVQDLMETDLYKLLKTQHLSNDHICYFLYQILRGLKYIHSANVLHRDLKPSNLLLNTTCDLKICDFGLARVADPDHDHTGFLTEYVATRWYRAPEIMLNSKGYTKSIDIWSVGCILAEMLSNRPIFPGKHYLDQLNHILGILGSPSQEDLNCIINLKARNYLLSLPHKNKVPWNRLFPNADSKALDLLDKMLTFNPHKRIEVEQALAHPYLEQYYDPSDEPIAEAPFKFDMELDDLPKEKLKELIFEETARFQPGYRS
Chain of MAP kinase-activated protein kinase 2 (Homo sapiens) (P49137 whole entry, looked up): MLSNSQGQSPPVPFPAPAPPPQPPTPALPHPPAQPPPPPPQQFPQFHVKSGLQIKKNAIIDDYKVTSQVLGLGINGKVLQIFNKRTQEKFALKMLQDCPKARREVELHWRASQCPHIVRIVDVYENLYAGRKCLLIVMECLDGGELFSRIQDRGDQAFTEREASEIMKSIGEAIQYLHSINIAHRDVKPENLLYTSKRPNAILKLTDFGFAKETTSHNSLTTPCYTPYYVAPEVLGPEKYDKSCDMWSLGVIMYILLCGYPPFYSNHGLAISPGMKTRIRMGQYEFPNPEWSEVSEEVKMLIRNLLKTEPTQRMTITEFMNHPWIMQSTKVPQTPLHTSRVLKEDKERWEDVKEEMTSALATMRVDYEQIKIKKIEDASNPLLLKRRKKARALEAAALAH
Chain of Phosphorylase b kinase gamma catalytic chain, skeletal muscle/heart isoform (Homo sapiens) (Q16816 whole entry, looked up, the tested form may be a part, canonical isoform): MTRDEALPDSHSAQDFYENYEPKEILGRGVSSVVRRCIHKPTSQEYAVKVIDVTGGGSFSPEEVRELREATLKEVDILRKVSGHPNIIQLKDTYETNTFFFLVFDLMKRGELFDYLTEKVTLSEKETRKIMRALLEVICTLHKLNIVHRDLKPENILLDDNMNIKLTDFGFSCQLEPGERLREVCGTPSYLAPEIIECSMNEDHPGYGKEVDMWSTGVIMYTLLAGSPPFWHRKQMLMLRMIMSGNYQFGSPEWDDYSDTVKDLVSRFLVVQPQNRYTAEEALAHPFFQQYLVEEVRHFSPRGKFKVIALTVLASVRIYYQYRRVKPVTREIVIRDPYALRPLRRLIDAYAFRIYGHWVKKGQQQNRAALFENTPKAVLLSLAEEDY
Chain of Serine/threonine-protein kinase PLK3 (Homo sapiens) (Q9H4B4 whole entry, looked up): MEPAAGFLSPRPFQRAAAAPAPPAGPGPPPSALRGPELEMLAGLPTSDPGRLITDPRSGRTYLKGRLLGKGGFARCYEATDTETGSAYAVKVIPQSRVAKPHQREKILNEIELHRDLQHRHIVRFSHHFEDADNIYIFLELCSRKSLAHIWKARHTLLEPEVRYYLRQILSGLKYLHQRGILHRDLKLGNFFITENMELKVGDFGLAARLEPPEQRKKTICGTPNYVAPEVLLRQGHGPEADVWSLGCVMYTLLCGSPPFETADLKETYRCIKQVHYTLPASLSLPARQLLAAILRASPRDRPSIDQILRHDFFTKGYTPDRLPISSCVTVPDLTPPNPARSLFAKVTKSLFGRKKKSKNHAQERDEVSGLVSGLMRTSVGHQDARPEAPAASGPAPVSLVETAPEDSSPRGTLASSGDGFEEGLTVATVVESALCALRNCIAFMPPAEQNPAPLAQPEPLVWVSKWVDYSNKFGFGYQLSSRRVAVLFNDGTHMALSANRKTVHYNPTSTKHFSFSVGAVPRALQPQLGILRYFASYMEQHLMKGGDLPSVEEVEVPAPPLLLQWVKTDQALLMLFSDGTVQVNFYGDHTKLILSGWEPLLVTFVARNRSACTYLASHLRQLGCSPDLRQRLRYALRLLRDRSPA
Chain of Phosphatidylinositol 4-phosphate 3-kinase C2 domain-containing subunit alpha (Homo sapiens) (O00443 whole entry, the tested form may be a part): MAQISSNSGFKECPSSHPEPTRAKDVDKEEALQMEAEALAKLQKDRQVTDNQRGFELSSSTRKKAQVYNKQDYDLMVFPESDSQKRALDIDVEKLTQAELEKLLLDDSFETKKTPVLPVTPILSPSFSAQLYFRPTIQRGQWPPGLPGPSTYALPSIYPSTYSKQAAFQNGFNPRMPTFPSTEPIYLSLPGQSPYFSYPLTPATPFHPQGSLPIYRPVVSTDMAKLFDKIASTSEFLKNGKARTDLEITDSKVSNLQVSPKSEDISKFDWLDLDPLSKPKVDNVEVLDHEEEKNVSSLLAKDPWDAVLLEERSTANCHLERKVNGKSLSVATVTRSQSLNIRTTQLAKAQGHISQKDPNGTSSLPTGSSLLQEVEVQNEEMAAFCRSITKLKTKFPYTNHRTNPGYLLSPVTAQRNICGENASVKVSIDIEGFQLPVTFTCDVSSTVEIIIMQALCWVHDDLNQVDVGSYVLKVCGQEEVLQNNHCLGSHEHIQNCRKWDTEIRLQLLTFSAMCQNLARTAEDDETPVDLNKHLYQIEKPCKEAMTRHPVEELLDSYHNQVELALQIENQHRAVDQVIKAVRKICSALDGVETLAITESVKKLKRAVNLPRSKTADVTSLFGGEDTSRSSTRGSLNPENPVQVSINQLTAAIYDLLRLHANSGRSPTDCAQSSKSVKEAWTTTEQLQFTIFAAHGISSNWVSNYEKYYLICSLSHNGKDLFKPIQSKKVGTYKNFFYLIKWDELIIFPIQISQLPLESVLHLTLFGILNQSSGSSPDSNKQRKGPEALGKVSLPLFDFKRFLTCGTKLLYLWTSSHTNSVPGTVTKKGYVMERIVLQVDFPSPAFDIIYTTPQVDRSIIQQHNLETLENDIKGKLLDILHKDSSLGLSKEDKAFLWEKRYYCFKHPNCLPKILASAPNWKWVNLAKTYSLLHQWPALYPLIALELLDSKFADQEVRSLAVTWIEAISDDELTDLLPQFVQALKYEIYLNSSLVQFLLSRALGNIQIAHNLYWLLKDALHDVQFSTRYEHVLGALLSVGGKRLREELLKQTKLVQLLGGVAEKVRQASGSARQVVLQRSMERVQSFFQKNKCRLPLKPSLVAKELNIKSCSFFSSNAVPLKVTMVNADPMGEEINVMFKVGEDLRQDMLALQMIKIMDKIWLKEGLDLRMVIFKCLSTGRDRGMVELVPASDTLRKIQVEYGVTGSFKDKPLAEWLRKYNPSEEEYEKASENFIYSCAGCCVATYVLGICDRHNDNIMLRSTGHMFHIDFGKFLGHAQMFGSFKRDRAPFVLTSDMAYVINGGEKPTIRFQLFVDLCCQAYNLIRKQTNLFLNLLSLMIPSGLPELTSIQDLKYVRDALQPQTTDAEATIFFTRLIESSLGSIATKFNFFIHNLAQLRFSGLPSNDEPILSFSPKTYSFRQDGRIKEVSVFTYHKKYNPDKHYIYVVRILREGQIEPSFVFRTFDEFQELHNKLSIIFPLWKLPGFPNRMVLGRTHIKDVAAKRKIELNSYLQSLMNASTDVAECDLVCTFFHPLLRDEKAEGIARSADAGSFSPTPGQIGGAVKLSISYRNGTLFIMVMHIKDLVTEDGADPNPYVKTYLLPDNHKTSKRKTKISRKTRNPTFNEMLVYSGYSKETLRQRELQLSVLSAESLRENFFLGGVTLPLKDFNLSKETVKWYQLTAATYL
Chain of Phosphatidylinositol 4-kinase beta (Homo sapiens) (Q9UBF8 2-816 limits assumed): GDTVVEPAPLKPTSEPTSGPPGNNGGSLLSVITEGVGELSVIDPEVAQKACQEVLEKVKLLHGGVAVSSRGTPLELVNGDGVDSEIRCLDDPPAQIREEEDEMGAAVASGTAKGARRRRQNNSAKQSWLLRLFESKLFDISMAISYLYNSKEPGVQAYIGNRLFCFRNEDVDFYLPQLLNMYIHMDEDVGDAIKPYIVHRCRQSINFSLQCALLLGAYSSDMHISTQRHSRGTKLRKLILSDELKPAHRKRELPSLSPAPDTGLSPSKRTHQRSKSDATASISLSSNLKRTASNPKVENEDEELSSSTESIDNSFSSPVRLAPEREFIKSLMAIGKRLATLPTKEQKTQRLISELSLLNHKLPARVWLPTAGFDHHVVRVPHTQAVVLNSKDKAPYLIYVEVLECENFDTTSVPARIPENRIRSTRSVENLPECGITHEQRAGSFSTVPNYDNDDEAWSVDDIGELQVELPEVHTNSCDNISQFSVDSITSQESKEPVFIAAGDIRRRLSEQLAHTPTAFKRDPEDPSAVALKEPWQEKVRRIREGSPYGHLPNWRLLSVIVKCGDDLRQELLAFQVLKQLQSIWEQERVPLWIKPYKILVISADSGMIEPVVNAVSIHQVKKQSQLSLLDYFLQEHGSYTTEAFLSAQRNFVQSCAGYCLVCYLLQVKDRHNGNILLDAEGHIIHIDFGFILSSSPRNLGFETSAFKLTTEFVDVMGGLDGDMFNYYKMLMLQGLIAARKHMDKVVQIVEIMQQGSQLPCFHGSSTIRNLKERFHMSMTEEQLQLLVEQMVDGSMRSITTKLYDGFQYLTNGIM
Chain of 5-hydroxytryptamine receptor 1B (Rattus norvegicus) (P28564 whole entry): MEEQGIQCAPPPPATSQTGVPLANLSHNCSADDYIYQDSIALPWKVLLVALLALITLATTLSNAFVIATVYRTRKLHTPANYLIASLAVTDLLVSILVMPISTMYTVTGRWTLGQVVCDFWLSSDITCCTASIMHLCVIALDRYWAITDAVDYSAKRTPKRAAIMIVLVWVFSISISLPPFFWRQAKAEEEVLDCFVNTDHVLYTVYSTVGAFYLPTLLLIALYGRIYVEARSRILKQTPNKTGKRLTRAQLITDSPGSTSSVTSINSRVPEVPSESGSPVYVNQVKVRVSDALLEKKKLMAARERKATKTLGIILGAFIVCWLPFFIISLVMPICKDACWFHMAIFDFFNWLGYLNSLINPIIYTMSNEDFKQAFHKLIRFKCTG
Chain of Type-2 angiotensin II receptor (Homo sapiens) (P50052 whole entry): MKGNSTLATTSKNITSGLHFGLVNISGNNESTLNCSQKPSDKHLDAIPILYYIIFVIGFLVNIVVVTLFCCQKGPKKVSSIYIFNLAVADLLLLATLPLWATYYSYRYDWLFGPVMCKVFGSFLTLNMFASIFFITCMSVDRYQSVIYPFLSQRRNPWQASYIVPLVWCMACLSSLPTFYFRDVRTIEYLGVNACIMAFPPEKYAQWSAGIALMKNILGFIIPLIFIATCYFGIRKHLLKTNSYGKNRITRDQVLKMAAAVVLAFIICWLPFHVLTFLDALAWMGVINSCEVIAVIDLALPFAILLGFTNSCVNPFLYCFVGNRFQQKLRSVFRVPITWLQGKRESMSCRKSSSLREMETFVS

CN(C)C(=O)Cn1cc(-c2nc(C3(c4ccc(-c5cnc(N)nc5)cc4)CC3)no2)cn1 [BI 0153]
inactive: residual activity [1] 99% | residual activity [2] 70% | inhibition [3] -7.33%

CN(C)C(=O)Cn1cc(-c2nc([C@@](C)(c3ccc(-c4cnc(N)nc4)cc3)C3CC3)no2)cn1 [BI 665915]
inactive: residual activity [4] 141% | residual activity [5] 98% | residual activity [6] 114% | residual activity [7] 108% | residual activity [8] 95% | residual activity [9] 98% | residual activity [10] 93% | residual activity [11] 98% | residual activity [12] 99% | residual activity [13] 99.5% | residual activity [14] 93.5% | residual activity [15] 85% | residual activity [16] 96.5% | residual activity [17] 88% | residual activity [18] 94.5% | residual activity [19] 97.5% | residual activity [20] 104% | residual activity [21] 108% | residual activity [22] 97% | residual activity [23] 98% | residual activity [24] 86% | residual activity [25] 105% | residual activity [26] 96%
